Experimental data as given in US11957684B2, “Treatment of heavy menstrual bleeding associated with uterine fibroids” (Sumitomo Pharma Switzerland GmbH, priority 2016, dated 2024).
Values joined by “and” are separate entries in the source; they are usually repeats but may differ in a detail not shown here. Equal entries are not always repeated.

Experiments:
[1] = test system: LH, FSH, estradiol (E2), progesterone (P); assay: Example 5A: serum LH, FSH, E2, P; type: in vivo, human
Method: At Visit 3, blood was drawn twice, at 0.5 to 1.5 hours postdose and at 2 to 5 hours postdose, from each evaluable subject. At Visits 4, 5 and 6, blood was drawn once immediately prior to the dose for each day, and again at 0.5 to 1.5 hours postdose and at 2 to 5 hours postdose, from each evaluable subject. Blood was drawn only once for patients who took the study drug for the day before visiting the investigational site. At Visit 7, blood was drawn only once at the visit.

[2] = FIG. 7B
Source text: Table printed on a drawing sheet, FIG. 7B
(§1) The patent's description of the figure: FIGS. 7A-F are tables of plasma PK parameters for Cohorts 8 to 10 in accordance with Example 4.
First reader's note: Each column is a dose group; per the description these are Day 1 plasma PK values for Cohorts 8 to 10.

[3] = FIG. 7E
Source text: Table printed on a drawing sheet, FIG. 7E
as §1
First reader's note: Each column is a dose group; according to the description these are plasma PK parameters on Day 14 (Cohorts 8 to 10).

[4] = test system: healthy premenopausal women; assay: Example 4: safety and tolerability; type: in vivo, human; conditions: single doses up to 80 mg, up to 40 mg QD for 14 days
Source text: The study was a phase 1, double-blind, randomized, placebo-controlled, sequential-panel, ascending single- and multiple-dose study in healthy premenopausal women. Ten groups, each of 12 healthy premenopausal, adult women, participated in the study (Cohorts 1 to 10).
Serum chemistry, hematology, urinalysis, vital signs, and ECGs were monitored during the study up to 1 week after the last dose. There were no meaningful changes in these parameters in the Compound 1 dose groups compared with placebo. QT and corrected QT interval (QTc) intervals >450 msec and […] were seen across all dose groups, including the placebo group.

[5] = test system: women with endometriosis; assay: Example 8A: safety (adverse events, BMD, menstruation recovery); conditions: for Change from Baseline in BMD, mean: Week 24
Source text: Study participants were premenopausal (≥20 years) Japanese women with endometriosis (EM)-associated pain who completed a preceding 12-week study and were eligible to continue for an additional 12-week treatment were enrolled. The participants has confirmed normal regular menstrual cycles (25 to 38 days per cycle) and diagnosed to have EM and EM-related dysmenorrhea and pelvic pain of at least moderate severity as determined by the physician B&B scale. The primary endpoint was the safety including assessment of change in bone mineral density (BMD) using dual energy x-ray absorptiometry, adverse events, vital signs, weight, 12-lead electrocardiograms, and clinical laboratory tests.
The present extension study consisted of an additional treatment period of 12 weeks and a follow-up period of 4 weeks. Overall treatment duration was 24 weeks from the beginning of the preceding phase 2 study. Patients were assigned to the same treatment group as the preceding phase 2 study.

[6] = FIG. 11
Source text: Table printed on a drawing sheet, FIG. 11
The patent's description of the figure: FIG. 11 is a table of plasma and urine PK parameters for Cohorts 8 to 10 on Days 1 and 14 of the treatment period in accordance with Example 4.
First reader's note: Each column is one dose cohort on one treatment day; the Min and Max rows give the range of the median Tmax, and 'nc' is not explained on the sheet.

SMILES: CONC(=O)Nc1ccc(-c2sc3c(c2CN(C)C)c(=O)n(-c2ccc(OC)nn2)c(=O)n3Cc2c(F)cccc2F)cc1 [Compound 1, N-(4-(1-(2,6-difluorobenzyl)-5-((dimethylamino)methyl)-3-(6-methoxy-3-pyridazinyl)-2,4-dioxo-1,2,3,4-tetrahydrothieno[2,3-d]pyrimidin-6-yl)phenyl)-N′-methoxyurea]
- median serum E2 ([1]; 10 mg, Week 2): 82.5 pg/mL
- median serum FSH ([1]; 10 mg, Week 2): 5.990 mIU/mL
- median serum LH ([1]; 10 mg, Week 2): 3.815 mIU/mL
- median serum P ([1]; 10 mg, Week 2): 0.315 ng/mL
- median serum E2 ([1]; 10 mg, Week 4): 58.0 pg/mL
- median serum FSH ([1]; 10 mg, Week 4): 5.225 mIU/mL
- median serum LH ([1]; 10 mg, Week 4): 2.565 mIU/mL
- median serum P ([1]; 10 mg, Week 4): 0.440 ng/mL
- median serum E2 ([1]; 10 mg, Week 8): 52.0 pg/mL
- median serum FSH ([1]; 10 mg, Week 8): 6.150 mIU/mL
- median serum LH ([1]; 10 mg, Week 8): 3.460 mIU/mL
- median serum P ([1]; 10 mg, Week 8): 0.360 ng/mL
- median change in serum E2 from baseline ([1]; 10 mg, Week 12): 0.0 pg/mL
- median change in serum FSH from baseline ([1]; 10 mg, Week 12): −1.060 mIU/mL
- median change in serum LH from baseline ([1]; 10 mg, Week 12): 0.420 mIU/mL
- median change in serum P from baseline ([1]; 10 mg, Week 12): 0.080 ng/mL
- median serum E2 ([1]; 10 mg, Week 12): 57.0 pg/mL
- median serum FSH ([1]; 10 mg, Week 12): 6.200 mIU/mL
- median serum LH ([1]; 10 mg, Week 12): 3.550 mIU/mL
- median serum P ([1]; 10 mg, Week 12): 0.410 ng/mL
- median serum E2 ([1]; 20 mg, Week 2): 25.0 pg/mL
- median serum FSH ([1]; 20 mg, Week 2): 5.705 mIU/mL
- median serum LH ([1]; 20 mg, Week 2): 2.520 mIU/mL
- median serum P ([1]; 20 mg, Week 2): 0.235 ng/mL
- median serum E2 ([1]; 20 mg, Week 4): 23.5 pg/mL
- median serum FSH ([1]; 20 mg, Week 4): 4.660 mIU/mL
- median serum LH ([1]; 20 mg, Week 4): 1.750 mIU/mL
- median serum P ([1]; 20 mg, Week 4): 0.270 ng/mL
- median serum E2 ([1]; 20 mg, Week 8): 16.0 pg/mL
- median serum FSH ([1]; 20 mg, Week 8): 4.840 mIU/mL
- median serum LH ([1]; 20 mg, Week 8): 2.260 mIU/mL
- median serum P ([1]; 20 mg, Week 8): 0.250 ng/mL
- median change in serum E2 from baseline ([1]; 20 mg, Week 12): -18.5 pg/mL
- median change in serum FSH from baseline ([1]; 20 mg, Week 12): −0.720 mIU/mL
- median change in serum LH from baseline ([1]; 20 mg, Week 12): −0.895 mIU/mL
- median change in serum P from baseline ([1]; 20 mg, Week 12): -0.090 ng/mL
- median serum E2 ([1]; 20 mg, Week 12): 13.0 pg/mL
- median serum FSH ([1]; 20 mg, Week 12): 5.710 mIU/mL
- median serum LH ([1]; 20 mg, Week 12): 2.685 mIU/mL
- median serum P ([1]; 20 mg, Week 12): 0.250 ng/mL
- median serum FSH ([1]; 40 mg, Week 2): 4.280 mIU/mL
- median serum LH ([1]; 40 mg, Week 2): 0.720 mIU/mL
- median serum P ([1]; 40 mg, Week 2): 0.230 ng/mL
- median serum E2 ([1]; 40 mg, Week 4): 0.0 pg/mL
- median serum FSH ([1]; 40 mg, Week 4): 3.710 mIU/mL
- median serum LH ([1]; 40 mg, Week 4): 0.550 mIU/mL
- median serum P ([1]; 40 mg, Week 4): 0.240 ng/mL
- median serum E2 ([1]; 40 mg, Week 8): 0.0 pg/mL
- median serum FSH ([1]; 40 mg, Week 8): 3.210 mIU/mL
- median serum LH ([1]; 40 mg, Week 8): 0.570 mIU/mL
- median serum P ([1]; 40 mg, Week 8): 0.220 ng/mL
- median change in serum E2 from baseline ([1]; 40 mg, Week 12): -35.0 pg/mL
- median change in serum FSH from baseline ([1]; 40 mg, Week 12): −3.180 mIU/mL
- median change in serum LH from baseline ([1]; 40 mg, Week 12): −2.760 mIU/mL
- median change in serum P from baseline ([1]; 40 mg, Week 12): -0.060 ng/mL
- median serum E2 ([1]; 40 mg, Week 12): 0.0 pg/mL
- median serum FSH ([1]; 40 mg, Week 12): 2.950 mIU/mL
- median serum LH ([1]; 40 mg, Week 12): 0.650 mIU/mL
- median serum P ([1]; 40 mg, Week 12): 0.250 ng/mL
- CL/F (L/hr) | Mean [2]: 959.7 L/h and 697.6 L/h
- Tmax (hr) | Median [2]: 1.480 h
- CL/F (L/hr) | Mean [3]: 569.7 L/h and 436.3 L/h and 373.4 L/h
- Vz/F (L) | Mean [3]: 5041.8 L and 3618.3 L and 3086.5 L
- safety and tolerability [4]: safe and well tolerated
- Menstruation Recovery Period, mean ([5]; 10 mg): 21 days
- Any TEAEs ([5]; 10 mg (N = 103)): 89 N
- Headache ([5]; 10 mg (N = 103)): 5 N
- Hot flush ([5]; 10 mg (N = 103)): 12 N
- Hyperhidrosis ([5]; 10 mg (N = 103)): 4 N
- Menorrhagia ([5]; 10 mg (N = 103)): 11 N
- Menstruation Irregular ([5]; 10 mg (N = 103)): 21 N
- Metrorrhagia ([5]; 10 mg (N = 103)): 28 N
- Nasopharyngitis ([5]; 10 mg (N = 103)): 31 N
- Oligomenorrhea ([5]; 10 mg (N = 103)): 12 N
- Serious TEAEs ([5]; 10 mg (N = 103)): 0 N
- TEAEs Leading to Study Drug Discontinuation ([5]; 10 mg (N = 103)): 1 N
- TEAEs Related to Study Drug ([5]; 10 mg (N = 103)): 68 N
- TEAEs, Mild ([5]; 10 mg (N = 103)): 83 N
- TEAEs, Moderate ([5]; 10 mg (N = 103)): 6 N
- TEAEs, Severe ([5]; 10 mg (N = 103)): 0 N
- Change from Baseline in BMD, mean ([5]; 10 mg): −1.6%
- Menstruation Recovery Period, mean ([5]; 20 mg): 26 days
- Any TEAEs ([5]; 20 mg (N = 100)): 96 N
- Headache ([5]; 20 mg (N = 100)): 12 N
- Hot flush ([5]; 20 mg (N = 100)): 23 N
- Hyperhidrosis ([5]; 20 mg (N = 100)): 11 N
- Menorrhagia ([5]; 20 mg (N = 100)): 16 N
- Menstruation Irregular ([5]; 20 mg (N = 100)): 21 N
- Metrorrhagia ([5]; 20 mg (N = 100)): 36 N
- Nasopharyngitis ([5]; 20 mg (N = 100)): 31 N
- Oligomenorrhea ([5]; 20 mg (N = 100)): 12 N
- Serious TEAEs ([5]; 20 mg (N = 100)): 2 N
- TEAEs Leading to Study Drug Discontinuation ([5]; 20 mg (N = 100)): 7 N
- TEAEs Related to Study Drug ([5]; 20 mg (N = 100)): 88 N
- TEAEs, Mild ([5]; 20 mg (N = 100)): 82 N
- TEAEs, Moderate ([5]; 20 mg (N = 100)): 14 N
- TEAEs, Severe ([5]; 20 mg (N = 100)): 0 N
- Change from Baseline in BMD, mean ([5]; 20 mg): −2.6%
- Menstruation Recovery Period, mean ([5]; 40 mg): 37 days
- Any TEAEs ([5]; 40 mg (N = 103)): 98 N
- Headache ([5]; 40 mg (N = 103)): 11 N
- Hot flush ([5]; 40 mg (N = 103)): 55 N
- Hyperhidrosis ([5]; 40 mg (N = 103)): 10 N
- Menorrhagia ([5]; 40 mg (N = 103)): 15 N
- Menstruation Irregular ([5]; 40 mg (N = 103)): 7 N
- Metrorrhagia ([5]; 40 mg (N = 103)): 30 N
- Nasopharyngitis ([5]; 40 mg (N = 103)): 31 N
- Oligomenorrhea ([5]; 40 mg (N = 103)): 1 N
- Serious TEAEs ([5]; 40 mg (N = 103)): 0 N
- TEAEs Leading to Study Drug Discontinuation ([5]; 40 mg (N = 103)): 2 N
- TEAEs Related to Study Drug ([5]; 40 mg (N = 103)): 91 N
- TEAEs, Mild ([5]; 40 mg (N = 103)): 83 N
- TEAEs, Moderate ([5]; 40 mg (N = 103)): 15 N
- TEAEs, Severe ([5]; 40 mg (N = 103)): 0 N
- Change from Baseline in BMD, mean ([5]; 40 mg): −4.9%
- Tmax (hr) | Median [6]: 1.00 h
